Source: publication PMC10812672, “Short Antimicrobial Peptide Derived from the Venom Gland Transcriptome of Pamphobeteus verdolaga Increases Gentamicin Susceptibility of Multidrug-Resistant Klebsiella pneumoniae” (Antibiotics, 2023)
Ends that are not written are not given here.

Legend:
[1] = tested on: E. coli ATCC® 25922; assay type: cell-based, Escherichia coli; details: CLSI broth microdilution, Mueller-Hinton broth, peptide 30 µM, ~6 × 10^6 CFU/mL, 24 h 37 °C, OD600; triplicate, three independent assays; NA = no activity
Procedure: (§1) Activity screening was conducted using the broth microdilution method at a fixed peptide concentration of 30 µM against E. coli ATCC® 8739 and 25922, as well as S. aureus ATCC® 6538 and 29213. The bacterial density used for screening was approximately 6 × 10^6 CFU/mL [30]. Peptide activity measurements were conducted in terms of the growth inhibition percentage. No dose-response curves were generated during the screening phase as a resource optimization strategy in the initial activity evaluation. […] For S. aureus ATCC® 6538 and S. aureus ATCC® 29213, growth inhibition ranged from 0% to 140% and 0% to 98%, respectively (Table 1).
(§2) The evaluation of the antimicrobial activity of the peptides was conducted using the CLSI’s broth microdilution method for bacterial susceptibility testing. For the screening phase, peptides were evaluated at a single 30 μM concentration, in triplicate and in three independent assays, against the E. coli ATCC® 8739, E. coli ATCC® 25922, S. aureus ATCC® 6538, or S. aureus ATCC® 29213 reference USP and CLSI strains. For the determination of MIC, MBC, or IC50, peptides or antibiotics were evaluated in concentrations between 1.56–200 µM. These evaluations were conducted in triplicate and in three independent assays, against the E. coli ATCC® 25922, S. aureus ATCC® 29213, E. faecalis ATCC® 49532, P. aeruginosa ATCC® 9027, and K. pneumoniae ATCC® BAA-1705, or the clinically isolated MDR strain. In detail, 1 mL of a glycerol stock solution of the ATCC® or clinically isolated bacterial strain was added to 9 mL of Mueller-Hinton Broth and incubated for 18 h, 180 rpm and 37 °C (Incubator 1000, Heidolph Instruments, Schwabach, Germany). After the incubation, 1 mL of the previous solution was transferred to a new recipient containing 9 mL of fresh Mueller-Hinton broth and incubated for 4 h, 180 rpm and 37 °C (Incubator 1000, Heidolph Instruments, Schwabach, Germany). During the second incubation, the peptides or the antibiotics were dissolved in PBS pH 7.20 in concentrations between 19.53–2500 µM (MC5 Micro Balance, Sartorius AG, Göttingen, Germany). An amount of 10 µL of either peptide or antibiotic was dispensed in triplicate in 96-well flat bottom culture plates, along with 10 µL of PBS (Negative activity control), BTM-P1 (Positive activity control), or 10 µL of Mueller-Hinton broth (Blank); then, 110 µL of Mueller-Hinton broth was poured in all wells. Following this, the bacteria were suspended in Mueller-Hinton broth up to a concentration of approximately 1.50 × 10^8 CFU/mL, as measured by optical density at 600 nm between 0.06 to 0.11 (0.5 McFarland standard), in a Multiskan SkyHigh spectrophotometer (ThermoFisher Scientific, Waltham, MA, USA). Amounts of 5 µL of the 1.50 × 10^8 CFU/mL suspension were added to each well (except for the blank) for a final well concentration of approximately 6 × 10^6 CFU/mL. The plate was incubated for 24 h at 37 °C (BE 500, Memmert GmbH, Büchenbach, Germany) and optical density was measured at 600 nm in a Multiskan SkyHigh spectrophotometer (ThermoFisher Scientific, Waltham, MI, USA). Following the measurement of optical density, plates were visually inspected to determine the MIC. Subsequently, 100 µL of the concentration associated to the MIC and 100 µL of the next higher concentration were added to Petri dishes containing Mueller-Hinton Agar. The dishes were then incubated for 24 h at 37 °C (BE 500, Memmert GmbH, Büchenbach, Germany). After incubation, the Petri dishes were visually inspected, and the MBC was determined in the absence of growth. IC50 values were interpolated from regressions with correlation values above 0.70. Growth inhibition percentages were calculated as follows: Growth inhibition %=1−AbsPEPTIDE or ANTIBIOTIC−Median AbsBLANK/Median AbsPBS−Median AbsBLANK×100

[2] = tested on: E. coli ATCC® 8739; assay type: cell-based, Escherichia coli; details: CLSI broth microdilution, Mueller-Hinton broth, peptide 30 µM, ~6 × 10^6 CFU/mL, 24 h 37 °C, OD600; triplicate, three independent assays; NA = no activity
Procedure: as §1, §2

[3] = tested on: S. aureus ATCC® 6538; assay type: cell-based, Staphylococcus aureus; details: CLSI broth microdilution, Mueller-Hinton broth, peptide 30 µM, ~6 × 10^6 CFU/mL, 24 h 37 °C, OD600; triplicate, three independent assays; NA = no activity
Procedure: as §1, §2

[4] = tested on: S. aureus ATCC® 29213; assay type: cell-based, Staphylococcus aureus; details: CLSI broth microdilution, Mueller-Hinton broth, peptide 30 µM, ~6 × 10^6 CFU/mL, 24 h 37 °C, OD600; triplicate, three independent assays; NA = no activity
Procedure: as §1, §2

[5] = tested on: S. aureus ATCC® 29213; assay type: cell-based, Staphylococcus aureus
Procedure: The nine AMPs identified in the initial screening were evaluated at concentrations between 1.56–200 µM, against E. coli ATCC® 25922, S. aureus ATCC® 29213, E. faecalis ATCC® 49532, P. aeruginosa ATCC® 9027, and K. pneumoniae ATCC® BAA-1705 (Supplementary Figures S2–S6). […] Only PvAMP66 and PvAMP172 reached the MBC for S. aureus at 50 µM and 100 µM, respectively (Table 2).
as §2

## WKKIKKFF-NH2 [PvAMP66]
[1]
  E. coli ATCC® 25922 (Inhibition %): 73.59 ± 21.83 %
[2]
  E. coli ATCC® 8739 (Inhibition %): 88.81 ± 18.15 %
[3]
  S. aureus ATCC® 6538 (Inhibition %): 139.72 ± 1.90 %
[4]
  S. aureus ATCC® 29213 (Inhibition %): 98.25 ± 0.39 %
[5]; 1.56–200 µM, 24 h 37 °C, visual inspection, triplicate, three independent assays
  MIC: 25 µM
[5]; plating on Mueller-Hinton agar, absence of growth
  MBC: 50 µM
